Source: ChEMBL document CHEMBL1909046, “DrugMatrix in vitro pharmacology data”

Key:
[1] = DRUGMATRIX: Tumor Necrosis Factor (TNF), Non-Selective radioligand binding (ligand: [125I] TNF-alpha); format: cell membranes, Membrane; settings: u-937; Not Active = under 50% inhibition at 10 µM
[2] = molecular target: T1, Receptor-type tyrosine-protein phosphatase C (Homo sapiens, UniProt P08575); set-up: species or system Escherichia coli;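 further: inhibition of CD45 enzyme activity measured using DiFMUP as substrate; in other assays of this panel Not Active means under 50% inhibition at 10 µM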
T1 sequence (P08575 whole entry): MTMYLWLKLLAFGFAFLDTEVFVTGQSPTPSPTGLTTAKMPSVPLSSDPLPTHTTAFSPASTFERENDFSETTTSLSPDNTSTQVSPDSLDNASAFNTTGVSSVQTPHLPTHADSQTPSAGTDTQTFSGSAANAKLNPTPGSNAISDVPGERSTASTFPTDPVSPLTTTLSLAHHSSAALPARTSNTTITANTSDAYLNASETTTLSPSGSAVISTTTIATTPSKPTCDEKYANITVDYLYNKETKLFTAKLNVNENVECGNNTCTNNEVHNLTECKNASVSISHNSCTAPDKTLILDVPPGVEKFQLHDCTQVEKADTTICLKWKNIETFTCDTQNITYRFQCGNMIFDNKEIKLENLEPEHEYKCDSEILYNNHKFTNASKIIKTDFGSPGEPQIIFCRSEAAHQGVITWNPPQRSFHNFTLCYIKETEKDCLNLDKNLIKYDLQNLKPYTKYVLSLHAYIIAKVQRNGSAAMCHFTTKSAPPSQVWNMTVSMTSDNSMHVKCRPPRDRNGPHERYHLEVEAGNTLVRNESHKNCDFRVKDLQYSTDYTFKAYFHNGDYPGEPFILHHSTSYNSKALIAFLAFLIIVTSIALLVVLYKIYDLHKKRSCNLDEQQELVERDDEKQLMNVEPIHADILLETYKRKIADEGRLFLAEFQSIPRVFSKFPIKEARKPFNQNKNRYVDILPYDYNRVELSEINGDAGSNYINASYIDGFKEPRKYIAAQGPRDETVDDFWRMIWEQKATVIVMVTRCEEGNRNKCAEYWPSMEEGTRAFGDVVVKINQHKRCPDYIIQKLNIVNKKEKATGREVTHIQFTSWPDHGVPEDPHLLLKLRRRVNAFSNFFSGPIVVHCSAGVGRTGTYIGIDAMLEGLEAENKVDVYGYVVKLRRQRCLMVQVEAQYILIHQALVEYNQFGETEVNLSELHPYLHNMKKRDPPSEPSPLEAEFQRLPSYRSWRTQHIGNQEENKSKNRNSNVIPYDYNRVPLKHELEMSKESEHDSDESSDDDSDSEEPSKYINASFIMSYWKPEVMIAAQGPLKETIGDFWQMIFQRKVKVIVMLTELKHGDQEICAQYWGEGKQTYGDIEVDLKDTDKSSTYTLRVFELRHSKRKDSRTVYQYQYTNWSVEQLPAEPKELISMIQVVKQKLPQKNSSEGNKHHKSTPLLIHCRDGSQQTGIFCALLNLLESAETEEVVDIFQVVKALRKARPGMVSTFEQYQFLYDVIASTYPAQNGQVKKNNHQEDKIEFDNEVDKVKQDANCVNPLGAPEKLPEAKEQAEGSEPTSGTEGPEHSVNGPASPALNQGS

Caspase-1 = molecular target: T2, Caspase-1 (Homo sapiens, UniProt P29466); set-up: species or system Escherichia coli;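 further: Caspase-1 enzyme inhibition assay with a peptide substrate; in other assays of this panel Not Active means under 50% inhibition at 10 µM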
T2 sequence (P29466 whole entry): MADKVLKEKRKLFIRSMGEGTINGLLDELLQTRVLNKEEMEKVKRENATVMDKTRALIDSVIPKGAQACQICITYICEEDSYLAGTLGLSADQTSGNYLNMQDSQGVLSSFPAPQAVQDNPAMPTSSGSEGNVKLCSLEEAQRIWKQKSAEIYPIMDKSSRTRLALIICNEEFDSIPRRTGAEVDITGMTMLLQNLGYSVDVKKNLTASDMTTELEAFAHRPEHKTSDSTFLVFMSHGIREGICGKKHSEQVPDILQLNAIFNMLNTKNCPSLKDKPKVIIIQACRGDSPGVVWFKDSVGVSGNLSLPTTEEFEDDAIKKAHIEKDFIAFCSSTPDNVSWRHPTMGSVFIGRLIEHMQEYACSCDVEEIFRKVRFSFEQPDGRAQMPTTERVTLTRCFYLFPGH

Cytochrome P450 2E1 = Cytochrome P450 2E1 (Homo sapiens, UniProt P05181); settings: bti-tn-5b1-4; further: in other assays of this panel Not Active means under 50% inhibition at 10 µM
Cytochrome P450 2E1, sequence (P05181 whole entry): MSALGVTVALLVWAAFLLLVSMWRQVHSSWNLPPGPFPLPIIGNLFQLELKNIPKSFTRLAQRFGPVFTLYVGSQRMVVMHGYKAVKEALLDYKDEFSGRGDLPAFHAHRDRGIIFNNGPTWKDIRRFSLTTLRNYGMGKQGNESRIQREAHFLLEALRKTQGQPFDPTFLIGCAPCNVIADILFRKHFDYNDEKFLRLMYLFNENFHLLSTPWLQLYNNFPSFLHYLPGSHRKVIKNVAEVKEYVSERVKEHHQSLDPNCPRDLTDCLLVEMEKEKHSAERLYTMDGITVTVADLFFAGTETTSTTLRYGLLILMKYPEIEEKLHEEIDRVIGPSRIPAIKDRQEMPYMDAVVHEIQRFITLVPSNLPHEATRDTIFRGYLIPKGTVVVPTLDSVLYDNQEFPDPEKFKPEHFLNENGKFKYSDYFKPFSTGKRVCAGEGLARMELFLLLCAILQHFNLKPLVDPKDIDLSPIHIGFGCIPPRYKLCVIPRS

[3] = molecular target: T3, Neuropeptide Y receptor type 1 (Homo sapiens, UniProt P25929); format: cell membranes, Membrane; settings: sk-n-mc; further: in other assays of this panel Not Active means under 50% inhibition at 10 µM
T3 sequence (P25929 whole entry): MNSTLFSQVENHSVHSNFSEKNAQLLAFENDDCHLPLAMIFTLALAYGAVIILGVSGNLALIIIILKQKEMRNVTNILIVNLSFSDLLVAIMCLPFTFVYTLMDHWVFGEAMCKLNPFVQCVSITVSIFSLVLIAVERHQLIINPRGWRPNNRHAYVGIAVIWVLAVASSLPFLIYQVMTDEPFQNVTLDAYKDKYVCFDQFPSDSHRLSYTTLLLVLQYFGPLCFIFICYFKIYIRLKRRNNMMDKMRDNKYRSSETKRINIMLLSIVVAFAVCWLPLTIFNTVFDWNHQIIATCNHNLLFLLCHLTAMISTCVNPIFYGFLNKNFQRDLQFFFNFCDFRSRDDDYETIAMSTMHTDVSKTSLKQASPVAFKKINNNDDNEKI

Substance-K receptor = molecular target: T4, Substance-K receptor (Homo sapiens, UniProt P21452); format: cell membranes, CHO, Membrane; settings: for Ki: read-out: Ki
T4 sequence (P21452 whole entry): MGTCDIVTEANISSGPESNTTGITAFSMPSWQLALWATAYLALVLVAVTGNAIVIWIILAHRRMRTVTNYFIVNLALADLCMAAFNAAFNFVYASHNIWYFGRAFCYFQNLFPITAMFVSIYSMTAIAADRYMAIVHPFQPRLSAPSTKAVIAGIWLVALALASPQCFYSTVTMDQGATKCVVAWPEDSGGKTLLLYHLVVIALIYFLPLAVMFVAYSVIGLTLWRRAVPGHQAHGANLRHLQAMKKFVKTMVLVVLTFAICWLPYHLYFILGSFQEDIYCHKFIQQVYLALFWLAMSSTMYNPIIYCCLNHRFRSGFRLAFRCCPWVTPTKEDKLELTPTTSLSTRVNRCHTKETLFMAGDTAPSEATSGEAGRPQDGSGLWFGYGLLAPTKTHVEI

[4] = DRUGMATRIX: GABAA, Muscimol, Central radioligand binding (ligand: [3H] Muscimol); format: cell membranes, Rattus norvegicus, Wistar, Brain, Membrane; settings: Not Active = under 50% inhibition at 10 µM
[5] = molecular target: cGMP-specific 3',5'-cyclic phosphodiesterase (Homo sapiens, UniProt O76074); test: DRUGMATRIX: Phosphodiesterase PDE5 enzyme inhibition (substrate: [3H]cGMP + cGMP); format: tissue-based, Platelet; settings: platelet; Not Active = under 50% inhibition at 10 µM

Compound | IC50 [1] | Ki [1] | IC50 [2] | IC50 (Caspase-1) | IC50 (Cytochrome P450 2E1) | Ki (Cytochrome P450 2E1) | IC50 [3] | IC50 (Substance-K receptor; cho) | IC50 [4] | Ki [4] | IC50 [5] | IC50 (Substance-K receptor; read-out: IC50) [µM] | Ki (Substance-K receptor) [µM]
CCOC(=O)[C@H](CCc1ccccc1)N[C@@H](C)C(=O)N1[C@H](C(=O)O)C[C@@H]2CCC[C@@H]21 | Not Active | Not Active | Not Active | Not Active | Not Active | Not Active | Not Active | Not Active | Not Active | Not Active | Not Active | – | –
CC(C)(C)NC(=O)[C@@H]1CN(Cc2cccnc2)CCN1C[C@@H](O)C[C@@H](Cc1ccccc1)C(=O)N[C@H]1c2ccccc2C[C@H]1O.O | Not Active | Not Active | Not Active | Not Active | Not Active | Not Active | Not Active | – | Not Active | Not Active | Not Active | 5.1 | 1.7
CC1(C)[C@H]2CC[C@]1(C)C(=O)C2 [(-)-CAMPHOR] | Not Active | Not Active | Not Active | Not Active | Not Active | Not Active | Not Active | Not Active | Not Active | Not Active | Not Active | – | –
COc1ccc(CCN2CCC(Nc3nc4ccccc4n3Cc3ccc(F)cc3)CC2)cc1 [ASTEMIZOLE] | – | – | Not Active | Not Active | Not Active | Not Active | Not Active | – | – | – | Not Active | 2.99 | 0.995
CN(C)CCCN1c2ccccc2CCc2ccc(Cl)cc21 [CLOMIPRAMINE] | – | – | Not Active | Not Active | Not Active | Not Active | Not Active | Not Active | – | – | Not Active | – | –
Clc1ccccc1C(c1ccccc1)(c1ccccc1)n1ccnc1 [CLOTRIMAZOLE] | – | – | Not Active | Not Active | Not Active | Not Active | Not Active | – | – | – | Not Active | 10.1 | 3.38
O=C(CCCN1CCC(O)(c2ccc(Cl)cc2)CC1)c1ccc(F)cc1 [HALOPERIDOL] | – | – | Not Active | Not Active | Not Active | Not Active | Not Active | Not Active | – | – | Not Active | – | –
CN1CCN2c3ccccc3Cc3ccccc3C2C1 (centres undefined) [MIANSERIN] | – | – | Not Active | Not Active | Not Active | Not Active | Not Active | Not Active | – | – | Not Active | – | –
O=C1c2c(O)ccc(O)c2C(=O)c2c(NCCNCCO)ccc(NCCNCCO)c21 [MITOXANTRONE] | Not Active | Not Active | Not Active | Not Active | – | – | Not Active | Not Active | Not Active | Not Active | Not Active | – | –
CC(C)(O)c1ccccc1CC[C@@H](SCC1(CC(=O)O)CC1)c1cccc(/C=C/c2ccc3ccc(Cl)cc3n2)c1 [MONTELUKAST] | – | – | Not Active | Not Active | Not Active | Not Active | Not Active | – | – | – | Not Active | 3.82 | 1.27
COC(=O)C1=C(C)NC(C)=C(C(=O)OC)C1c1ccccc1[N+](=O)[O-] [NIFEDIPINE] | Not Active | Not Active | Not Active | Not Active | – | – | Not Active | Not Active | Not Active | Not Active | Not Active | – | –
CN[C@@H]1[C@@H](O)[C@@H](O[C@@H]2[C@@H](O)[C@H](O[C@H]3OC(CN)=CC[C@H]3N)[C@@H](N)C[C@H]2N)OC[C@]1(C)O [SISOMICIN] | Not Active | Not Active | Not Active | Not Active | – | – | Not Active | Not Active | Not Active | Not Active | Not Active | – | –
CSc1ccc2c(c1)N(CCC1CCCCN1C)c1ccccc1S2 (centres undefined) [THIORIDAZINE] | – | – | Not Active | Not Active | Not Active | Not Active | Not Active | Not Active | – | – | Not Active | – | –
COc1cccc(C2(O)CCCCC2CN(C)C)c1 (centres undefined) [TRAMADOL] | – | – | Not Active | Not Active | Not Active | Not Active | Not Active | Not Active | – | – | Not Active | – | –
COC(=O)[C@@H]1[C@H]2C[C@H]3c4[nH]c5ccccc5c4CCN3C[C@@H]2CC[C@@H]1O [YOHIMBINE] | Not Active | Not Active | Not Active | Not Active | – | – | Not Active | Not Active | Not Active | Not Active | Not Active | – | –
